According to paper PMC6642186, “Molecular mechanism of setron-mediated inhibition of full-length 5-HT3A receptor” (Nature Communications, 2019):
Numbering of substitutions follows the chain as printed. Each block holds one compound with its values, some of them ahead of it.

How the values were obtained:
[1] = tertiary ammonium in the bicyclic ring; no reference given; cited from earlier work
α7nAChR = system: α7nAChR; parameters: method as in PMID 11212100, PMID 15781147; details: cited from earlier work
5-HT3AR Y126F mutant = biological target: T1, 5-HT3AR Y126F mutant (Mus musculus, UniProt P23979, Y153F); assay: Serotonin dose response by TEVC recordings in oocytes; assay type: cell-based
T1 construct: Full-length 5-HT3AR messenger RNA (mRNA) was injected into oocytes; expressed in transfected cells; host or cells: Xenopus laevis oocytes (mRNA injection, pTLN vector)
T1 sequence (P23979 24-483 isoform P23979-2 Y153F): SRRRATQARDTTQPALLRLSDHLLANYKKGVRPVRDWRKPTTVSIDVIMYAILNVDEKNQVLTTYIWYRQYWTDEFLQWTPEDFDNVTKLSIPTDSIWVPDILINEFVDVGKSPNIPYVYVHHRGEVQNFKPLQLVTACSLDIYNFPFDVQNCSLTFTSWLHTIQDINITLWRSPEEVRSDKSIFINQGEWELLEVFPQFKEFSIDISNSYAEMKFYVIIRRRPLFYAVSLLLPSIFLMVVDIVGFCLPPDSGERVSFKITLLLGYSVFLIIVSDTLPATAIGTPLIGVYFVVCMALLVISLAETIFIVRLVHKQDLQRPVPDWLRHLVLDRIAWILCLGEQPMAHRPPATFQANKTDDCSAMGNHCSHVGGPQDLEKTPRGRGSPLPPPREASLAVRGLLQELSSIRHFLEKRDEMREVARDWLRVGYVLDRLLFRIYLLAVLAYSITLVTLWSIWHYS
Protocol: (§1) Data are shown as mean ± s.d. (n is indicated within parentheses). Significance at p = 0.001 (***) and […] calculated by two-sample t test for WT and mutants. Source data are provided as a Source Data file
(§2) The gene encoding mouse 5-HT3AR (purchased from GenScript) was inserted into a Xenopus laevis expression vector (pTLN) using cloning primers shown in Supplementary Table 1. DNA linearization was carried out with the Mlu1 restriction enzyme overnight at 37 °C. mRNA synthesis was done using the mMessage mMachine Kit (Ambion) as per the manufacturer’s instructions and purification was done with RNAeasy Kit (Qiagen). mRNA for studied mutants was prepared in the same way. Three to ten nanograms of mRNA was injected into X. laevis oocytes (stages V–VI) and experiments were performed 2–5 days after injection. For control experiments to verify that no endogenous currents were present, oocytes were injected with the same volume of water. W.F. Boron kindly provided oocytes used in this study. Female X. laevis were purchased from Nasco. Animal experimental procedures were approved by Institutional Animal Care and Use Committee (IACUC) of Case Western Reserve University. […] Oocytes were clamped at a holding potential of −60 mV. Solutions were changed using a syringe pump perfusion system flowing at a rate of 6 ml/min.

5-HT3AR R65A mutant = biological target: T2, 5-HT3AR R65A mutant (Mus musculus, UniProt P23979, R92A); assay: as above; assay type: cell-based
T2 construct: Full-length 5-HT3AR messenger RNA (mRNA) was injected into oocytes; expressed in transfected cells; host or cells: Xenopus laevis oocytes (mRNA injection, pTLN vector)
T2 sequence (P23979 24-483 isoform P23979-2 R92A): T1 sequence (P23979 24-483 isoform P23979-2 Y153F) with R69A, F130Y
Protocol: as §1, §2

5-HT3AR W156Y mutant = biological target: T3, 5-HT3AR W156Y mutant (Mus musculus, UniProt P23979, W183Y); assay: as above; assay type: cell-based
T3 construct: Full-length 5-HT3AR messenger RNA (mRNA) was injected into oocytes; expressed in transfected cells; host or cells: Xenopus laevis oocytes (mRNA injection, pTLN vector)
T3 sequence (P23979 24-483 isoform P23979-2 W183Y): T1 sequence (P23979 24-483 isoform P23979-2 Y153F) with F130Y, W160Y
Protocol: as §1, §2

5-HT3AR W63Y mutant = biological target: T4, 5-HT3AR W63Y mutant (Mus musculus, UniProt P23979, W90Y); assay: as above; assay type: cell-based
T4 construct: Full-length 5-HT3AR messenger RNA (mRNA) was injected into oocytes; expressed in transfected cells; host or cells: Xenopus laevis oocytes (mRNA injection, pTLN vector)
T4 sequence (P23979 24-483 isoform P23979-2 W90Y): T1 sequence (P23979 24-483 isoform P23979-2 Y153F) with W67Y, F130Y
Protocol: as §1, §2

5-HT3AR Y207F mutant = biological target: T5, 5-HT3AR Y207F mutant (Mus musculus, UniProt P23979, Y234F); assay: as above; assay type: cell-based
T5 construct: Full-length 5-HT3AR messenger RNA (mRNA) was injected into oocytes; expressed in transfected cells; host or cells: Xenopus laevis oocytes (mRNA injection, pTLN vector)
T5 sequence (P23979 24-483 isoform P23979-2 Y234F): T1 sequence (P23979 24-483 isoform P23979-2 Y153F) with F130Y, Y211F
Protocol: as §1, §2

wild-type (WT) 5-HT3AR = biological target: T6, wild-type (WT) 5-HT3AR (Mus musculus, UniProt P23979); assay: as above; assay type: cell-based; details: for Normalized current: wt
T6 construct: Full-length 5-HT3AR messenger RNA (mRNA) was injected into oocytes; expressed in transfected cells; host or cells: Xenopus laevis oocytes (mRNA injection, pTLN vector)
T6 sequence (P23979 24-483 isoform P23979-2 limits assumed): T1 sequence (P23979 24-483 isoform P23979-2 Y153F) with F130Y
Protocol: as §1, §2

[2] = system: human 5-HT3AR with mutations at the Arg65 position; parameters: method as in PMID 28137449; details: cited from earlier work
[3] = serotonin dose response, TEVC at −60 mV, oocytes

SMILES: CN1C2CCCC1CC(NC(=O)c1nn(C)c3ccccc13)C2 (stereo not shown) [granisetron]
pKa [1]: 9.6
binding to α7nAChR (α7nAChR): does not bind

Normalized current (5-HT3AR Y126F mutant; 10 microM serotonin): 0.04616
Normalized current (5-HT3AR Y126F mutant; 30 microM serotonin): 0.2137
Normalized current (5-HT3AR Y126F mutant; 50 microM serotonin): 0.6516
Normalized current (5-HT3AR Y126F mutant; 100 microM serotonin): 0.7792
Normalized current (5-HT3AR Y126F mutant; 250 microM serotonin): 0.904
Normalized current (5-HT3AR Y126F mutant; 500 microM serotonin): 0.985
Normalized current (5-HT3AR Y126F mutant; 1000 microM serotonin): 1
Hill coefficient (nH) (5-HT3AR Y126F mutant; [3]): 2.6 ± 0.71
Normalized current (5-HT3AR R65A mutant; 2.5 microM serotonin): 0.00482
Normalized current (5-HT3AR R65A mutant; 5 microM serotonin): 0.04808
Normalized current (5-HT3AR R65A mutant; 15 microM serotonin): 0.6252
Normalized current (5-HT3AR R65A mutant; 20 microM serotonin): 0.7837
Normalized current (5-HT3AR R65A mutant; 100 microM serotonin): 1
Hill coefficient (nH) (5-HT3AR R65A mutant; [3]): 4.4 ± 0.59
Normalized current (5-HT3AR W156Y mutant; 20 microM serotonin): 0.00976
Normalized current (5-HT3AR W156Y mutant; 50 microM serotonin): 0.04708
Normalized current (5-HT3AR W156Y mutant; 100 microM serotonin): 0.2083
Normalized current (5-HT3AR W156Y mutant; 200 microM serotonin): 0.2793
Normalized current (5-HT3AR W156Y mutant; 500 microM serotonin): 0.6574
Normalized current (5-HT3AR W156Y mutant; 1000 microM serotonin): 0.8828
Normalized current (5-HT3AR W156Y mutant; 2000 microM serotonin): 1
Hill coefficient (nH) (5-HT3AR W156Y mutant; [3]): 1.58 ± 0.24
Normalized current (5-HT3AR W63Y mutant; 2 microM serotonin): 0.00868
Normalized current (5-HT3AR W63Y mutant; 5 microM serotonin): 0.07991
Normalized current (5-HT3AR W63Y mutant; 10 microM serotonin): 0.4765
Normalized current (5-HT3AR W63Y mutant; 15 microM serotonin): 0.7556
Normalized current (5-HT3AR W63Y mutant; 30 microM serotonin): 0.8311
Normalized current (5-HT3AR W63Y mutant; 100 microM serotonin): 1
Hill coefficient (nH) (5-HT3AR W63Y mutant; [3]): 3.1 ± 0.72
Normalized current (5-HT3AR Y207F mutant; 5 microM serotonin): 0.02946
Normalized current (5-HT3AR Y207F mutant; 10 microM serotonin): 0.2522
Normalized current (5-HT3AR Y207F mutant; 30 microM serotonin): 0.6081
Normalized current (5-HT3AR Y207F mutant; 50 microM serotonin): 0.8641
Normalized current (5-HT3AR Y207F mutant; 100 microM serotonin): 0.8795
Normalized current (5-HT3AR Y207F mutant; 250 microM serotonin): 0.9933
Normalized current (5-HT3AR Y207F mutant; 500 microM serotonin): 0.9971
Normalized current (5-HT3AR Y207F mutant; 1000 microM serotonin): 1
Hill coefficient (nH) (5-HT3AR Y207F mutant; [3]): 1.9 ± 0.27
Hill coefficient (nH) (wild-type (WT) 5-HT3AR; serotonin dose response, TEVC at −60 mV, oocytes, WT): 2.3 ± 0.17
Normalized current (wild-type (WT) 5-HT3AR; 1 microM serotonin): 0.091
Normalized current (wild-type (WT) 5-HT3AR; 2 microM serotonin): 0.3528
Normalized current (wild-type (WT) 5-HT3AR; 3 microM serotonin): 0.5303
Normalized current (wild-type (WT) 5-HT3AR; 5 microM serotonin): 0.8338
Normalized current (wild-type (WT) 5-HT3AR; 10 microM serotonin): 0.9464
Normalized current (wild-type (WT) 5-HT3AR; 30 microM serotonin): 1
SMILES: NCCc1c[nH]c2ccc(O)cc12 [serotonin]

SMILES: CN1[C@@H]2CC[C@H]1C[C@@H](OC(=O)c1c[nH]c3ccccc13)C2 [tropisetron]
effect of mutations at the Arg65 position on binding [2]: only reduced
binding to α7nAChR (α7nAChR): bind to α7nAChR leading to channel activation
